{
  "source": "patent US20120258937A1",
  "about": "“Targeting Estrogen Receptors in the Treatment of Lymphangioleiomyomatosis” (Fox Chase Cancer Center, priority 2011, published 2012)",
  "key": {"[1]": {"test_system": "ELT3 cells", "assay": "ELT3 xenograft tumor growth, lung metastasis and survival in SCID mice", "format": "in vivo", "conditions": "for mean tumor area: post-inoculation week eight; for effect on estradiol-promoted lung metastases: ELT3 xenograft model of LAM", "method": "Animal studies. All animal work was performed in accordance with protocols approved by the Institutional Animal Care and Use Committee at the Brigham and Women's Hospital. Female ovariectomized and male CB17-SCID mice, six to eight weeks of age, were purchased from Taconic (Hudson, N.Y.). One week prior to ELT3 cell injection, 17-beta estradiol or placebo pellets (2.5 mg, 90-day release, Innovative Research America, Sarasota, Fla.) were implanted. For xenograft tumor establishment, 2×10^6 ELT3 cells were bilaterally injected into the rear flanks of the mice. Lung metastases were scored from five-micron H & E stained sections of each lobe by observers blinded to the experimental conditions. […]\nStatistical analyses. Statistical analyses were performed using Student's t-test when comparing two groups. Results are presented as means+SD (Standard Deviation) of experiments performed in triplicate. Differences were considered significant at p<0.05."}, "[2]": {"test_system": "ELT3 xenograft tumors", "assay": "Analysis of ELT3 xenograft tumors (H&E, immunohistochemistry, TUNEL, immunoblot, real-time RT-PCR)", "format": "in vivo, mice", "conditions": "for MMP2 protein level vs placebo-treated: immunoblotting", "method": "Animal studies. All animal work was performed in accordance with protocols approved by the Institutional Animal Care and Use Committee at the Brigham and Women's Hospital. Female ovariectomized and male CB17-SCID mice, six to eight weeks of age, were purchased from Taconic (Hudson, N.Y.). One week prior to ELT3 cell injection, 17-beta estradiol or placebo pellets (2.5 mg, 90-day release, Innovative Research America, Sarasota, Fla.) were implanted. For xenograft tumor establishment, 2×10^6 ELT3 cells were bilaterally injected into the rear flanks of the mice. Lung metastases were scored from five-micron H & E stained sections of each lobe by observers blinded to the experimental conditions. Fulvestrant (1 mg/day, intramuscular injection) or Doxycycline (0.7 mg/day, 60-day release, Innovative Research America) treatments were initiated one day post-cell inoculation.\n(§1) Immunoblotting and antibodies. Cells were rinsed once in ice-cold PBS and lysed in m-PER buffer (50 mM HEPES, pH 7.5, 50 mM NaCl, 5 mM EDTA, 50 mM NaF, 10 mM Na4P2O7, and 1% Triton, Pierce). Lysates were resolved by SDS-PAGE electrophoresis and transferred onto Immobilon P membranes (Millipore, Bedford, Mass.). The following antibodies were used for Western blot analysis: anti-MMP2 (Chemicon), anti-phospho-p42/44 MAPK (T202/Y204), anti-p42/44MAPK, anti-Collagen Type IV (Abnova), anti-Ki67 (BioGenex, San Ramon, Calif.), anti-beta-actin (Sigma), and anti-ERα (Santa Cruz, Calif.). Western blots were developed using horseradish peroxidase-conjugated secondary antibodies and ECL chemiluminescence (Amersham Biosciences, Piscataway, N.J.).\n(§2) Immunohistochemistry. Sections were deparaffinized, incubated overnight with primary antibodies at 4° C. in a humidified chamber and then rinsed and incubated with biotinylated secondary antibodies for 30 minutes at room temperature. Slides were developed using the Broad Spectrum AEC Histostain®-Plus or Histostain®-Plus kit (Invitrogen), and they were counterstained with Gill's Hematoxylin. TUNEL assay reagent was from Roche. Gelatin zymography. Conditioned media from cultured cells were collected, filtered through […] Nalgene filter, and subjected for gel electrophoresis on 10% SDS-PAGE containing 0.1% gelatin (Invitrogen). MMP2 activity was detected according to the manufacture's protocol. Real-time RT-PCR. Total RNA from cultured cells and xenograft tumors was isolated using RNeasy® Mini Kit (Qiagen, Valencia, Calif.). Gene expression was quantified using One-Step qRT-PCR Kits (Invitrogen) in the Applied Biosystems Real-Time PCR System and normalized to beta-actin control amplification."}, "[3]": {"test_system": "MMP2", "assay": "MMP2 accumulation in cultured ELT3 cells by immunoblotting", "format": "cell-based, rat", "method": "(§3) Cell culture and reagents. ELT-3 cells (Eker rat uterine leiomyoma-derived smooth muscle cells) were cultured in IIA complete medium supplemented with 15% fetal bovine serum (FBS). Prior to the in vitro experiments, cells were maintained in media supplemented with 10% charcoal-stripped FBS for three days, and then serum-starved for 24 hours in serum-free and phenol red-free medium. 17 beta-estradiol (E2, 10 nM, Sigma, St. Louis, Mo.), PD98059 (50 μM, Cell Signaling Technology, Danvers, Mass.), or ICI 182780 (1 μM, Biomol) were added to the cells as indicated.\nas §1"}, "[4]": {"test_system": "MMP2", "assay": "MMP2 activity in ELT3 conditioned media by gelatin zymography", "format": "cell-based, rat", "conditions": "ELT3 cells", "method": "as §3, §2"}, "[5]": {"conditions": "ELT3 xenograft, given on this schedule (one day prior to cell inoculation)"}, "[6]": {"conditions": "real-time RT-PCR, female mice, size-matched tumors"}, "[7]": {"conditions": "estradiol plus drug, immunoblot"}},
  "data": [
    {"smiles": "CO[C@H]1C[C@@H]2CC[C@@H](C)[C@@](O)(O2)C(=O)C(=O)N2CCCC[C@H]2C(=O)O[C@H]([C@H](C)C[C@@H]2CC[C@@H](OCCO)[C@H](OC)C2)CC(=O)[C@H](C)/C=C(\\C)[C@@H](O)[C@@H](OC)C(=O)[C@H](C)C[C@H](C)/C=C/C=C/C=C/1C", "note": "[RAD001]", "values": [
      {"measurement": "lung metastasis", "setting": "[1]; [5]", "result": "completely blocked"},
      {"measurement": "subcutaneous tumor development", "setting": "[1]; [5]", "result": "completely blocked"}
    ]},
    {"smiles": "C[C@]12CC[C@@H]3c4ccc(O)cc4CC[C@H]3[C@@H]1CC[C@@H]2O", "note": "[estradiol, 17 beta-estradiol]", "values": [
      {"measurement": "average number of lung metastases", "setting": "[1]; E2 alone", "result": 10, "unit": "metastases/mouse"},
      {"measurement": "range of number of lung metastases", "setting": "[1]; E2 alone", "result": "4-37 metastases/mouse"},
      {"measurement": "mice with pulmonary metastases", "setting": "[1]; E2 alone, five of nine mice", "result": 56, "unit": "%"},
      {"measurement": "increase in pulmonary metastasis of ELT3 cells", "setting": "[1]; E2 alone, mice bearing xenograft tumors", "result": "three- to five-fold"},
      {"measurement": "overall survival vs placebo-treated mice", "setting": "[1]; estradiol alone, mice bearing xenograft tumors", "result": "reduced overall survival"},
      {"measurement": "mean tumor area", "setting": "[1]; estrogen alone", "result": "251±65", "unit": "mm^2"},
      {"measurement": "type IV collagen in xenograft tumors", "setting": "[2]; estradiol alone vs placebo, female and male mice", "result": "marked reduction"},
      {"measurement": "ECM organization in xenograft tumors", "setting": "[2]; estradiol alone vs placebo, female and male mice, H&E", "result": "disrupted ECM network"},
      {"measurement": "MMP2 protein level vs placebo-treated", "setting": "[2]; female mice", "result": 1.8, "unit": "fold"},
      {"measurement": "MMP2 protein level vs placebo-treated", "setting": "[2]; male mice", "result": 2.5, "unit": "fold"},
      {"measurement": "MMP2 transcript level vs placebo-treated", "setting": "[2]; [6]", "result": 5, "unit": "fold"},
      {"measurement": "MMP9 transcript level vs placebo-treated", "setting": "[2]; [6]", "result": 28, "unit": "fold"},
      {"measurement": "progesterone receptor (PgR) level vs placebo-treated", "setting": "[2]; real-time RT-PCR, xenograft tumors", "result": 4, "unit": "fold"},
      {"measurement": "increase of MMP2 accumulation", "setting": "[3]; within two to four hours of estradiol treatment", "result": "five to seven-fold"},
      {"measurement": "increase of MMP2 activity", "setting": "[4]; estradiol stimulation for 24 hours", "result": "eight-fold"},
      {"measurement": "duration of estradiol-stimulated MMP2 activity", "setting": "[4]; up to 120 minutes stimulation", "result": "sustained throughout the 120 minutes stimulation"},
      {"measurement": "increase of active MMP2 level", "setting": "[4]; within five minutes of estradiol stimulation", "result": "three-fold"}
    ]},
    {"smiles": "COc1cccc(-c2cc(=O)c3ccccc3o2)c1N", "note": "[PD98059]", "values": [
      {"measurement": "effect on estradiol's enhancement of MMP2 accumulation", "setting": "[3]; 30 minutes preincubation, after two hours of estradiol treatment", "result": "strongly blocked"}
    ]},
    {"smiles": "C[C@]12CC[C@@H]3c4ccc(O)cc4C[C@@H](CCCCCCCCC[S+]([O-])CCCC(F)(F)C(F)(F)F)[C@H]3[C@@H]1CC[C@@H]2O", "note": "(stereo partly drawn) [Fulvestrant]", "values": [
      {"measurement": "effect on estradiol-promoted lung metastases", "setting": "[1]; drug plus estradiol", "result": "completely blocked"},
      {"measurement": "effect on survival of estradiol-treated mice bearing xenograft tumors", "setting": "[1]; drug plus estradiol, Kaplan-Meier", "result": "significantly increased"},
      {"measurement": "mean tumor area", "setting": "[1]; drug plus estradiol", "result": "259±83", "unit": "mm^2"},
      {"measurement": "cell death (TUNEL staining) in xenograft tumors", "setting": "[2]; drug in estradiol-treated mice", "result": "did not affect"},
      {"measurement": "cell proliferation (Ki-67 immunoreactivity) in xenograft tumors", "setting": "[2]; drug in estradiol-treated mice", "result": "did not affect"},
      {"measurement": "ECM organization in xenograft tumors", "setting": "[2]; drug plus estradiol-treated animals", "result": "well-maintained ECM network"},
      {"measurement": "ECM organization in xenograft tumors", "setting": "[2]; drug plus placebo-treated animals", "result": "dense bundles of collagen fibers"},
      {"measurement": "ERα in tumors", "setting": "[2]; [7]", "result": "lower levels"},
      {"measurement": "phospho-p42/44 MAPK in tumors", "setting": "[2]; [7]", "result": "lower levels"},
      {"measurement": "effect on estradiol-stimulated MMP2 activity", "setting": "[4]; 4 hours pretreatment, then estradiol stimulation", "result": "almost completely blocked"}
    ]},
    {"smiles": "C[C@H]1c2cccc(O)c2C(=O)C2=C(O)[C@]3(O)C(=O)C(C(N)=O)=C(O)[C@@H](N(C)C)[C@@H]3[C@@H](O)[C@@H]21", "note": "[Doxycycline]", "values": [
      {"measurement": "average number of lung metastases", "setting": "[1]; drug plus estradiol", "result": 9, "unit": "metastases/mouse"},
      {"measurement": "range of number of lung metastases", "setting": "[1]; drug plus estradiol", "result": "6-18 metastases/mouse"},
      {"measurement": "effect on estradiol-promoted lung metastases", "setting": "[1]; drug plus estradiol", "result": "does not inhibit"},
      {"measurement": "mice with lung metastases", "setting": "[1]; drug plus estradiol, four of five mice", "result": 80, "unit": "%"},
      {"measurement": "mean tumor area", "setting": "[1]; drug plus estradiol", "result": "333±142", "unit": "mm^2"},
      {"measurement": "mean tumor area", "setting": "[1]; drug plus placebo", "result": "193±80", "unit": "mm^2"}
    ]}
  ]
}
